Values of other authors as cited in US20100331966A1, “BIOCORRODIBLE IMPLANT HAVING AN ACTIVE COATING” (priority 2009, published 2010).

System: hyperlipidemic rabbits
[1] = hyperlipidemic rabbits, repeated administration

Substance	plaque-loosening effect (rabbit, in vivo)	atheromatous vascular plaque [1]	blood cholesterol [1]	fibrin content [1]	heparin content in the plasma [1]	vascular permeability in the tissue [1]
hyaluronate lyase [bacteria hyaluronate lyase]	confirmed	–	–	–	–	–
hyaluronidase	–	significant decrease	lowering	lowering	increase	increased
